# Measurements reported in ChEMBL document CHEMBL1201862, “PubChem BioAssay data set” (2004).
#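 All cell lines were grown in 96-well plates and treated with compound for 48 hours. GI50: concentration for 50% inhibition of growth.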 Active and inactive are the calls of the source. No stated cut-off is given here; in the data, active = GI50 up to about 1.1 µM and inactive = higher.
# Legend:
# Assay in all cases: NCI anticancer screen, dose series, 48 h
# HOP-92 = system: HOP-92
# RXF 631 = system: RXF 631
# KM-20L2 = system: KM-20L2
# SW-620 = system: SW-620
# COLO 205 = system: COLO 205
# KM12 = system: KM12
# SNB-78 = system: SNB-78
# UACC-257 = system: UACC-257
# Malme-3M = system: Malme-3M
# SN12C = system: SN12C
# EKVX = system: EKVX
# NCI-H460 = system: NCI-H460
# UACC-62 = system: UACC-62
# MOLT-4 = system: MOLT-4
# K562 = system: K562
# SF-539 = system: SF-539
# XF498 = system: XF498
# ACHN = system: ACHN
# OVCAR-4 = system: OVCAR-4
# NCI-H23 = system: NCI-H23
# OVCAR-5 = system: OVCAR-5
# RPMI-8226 = system: RPMI-8226
# IGROV-1 = system: IGROV-1
# LXFL 529 = system: LXFL 529
# HOP-18 = system: HOP-18
# RXF 393 = system: RXF 393
# M19-MEL = system: M19-MEL
# CCRF-CEM = system: CCRF-CEM
# SK-MEL-5 = system: SK-MEL-5
# SNB-19 = system: SNB-19
# OVCAR-8 = system: OVCAR-8
# A549 = system: A549
# SNB-75 = system: SNB-75
# HL-60 = system: HL-60
# LOX IMVI = system: LOX IMVI
# DMS-273 = system: DMS-273
# HT-29 = system: HT-29
# DLD-1 = system: DLD-1
# HCT-116 = system: HCT-116
# M14 = system: M14
# SF-295 = system: SF-295
# NCI-H226 = system: NCI-H226
# CAKI-1 = system: CAKI-1
# DMS-114 = system: DMS-114
# UO-31 = system: UO-31
# HCT-15 = system: HCT-15
# U-251 = system: U-251
# SK-MEL-28 = system: SK-MEL-28
# SR = system: SR
# HOP-62 = system: HOP-62
# SK-OV-3 = system: SK-OV-3
# 786-0 = system: 786-0
# HCC 2998 = system: HCC 2998
# OVCAR-3 = system: OVCAR-3
# TK-10 = system: TK-10
# SK-MEL-2 = system: SK-MEL-2
# SF-268 = system: SF-268
# A498 = system: A498
smiles,measurement,setting,value
FC(F)(F)c1nc(Br)[nH]c1C(F)(F)F,GI50,HOP-92,27.8 µM (inactive)
same,GI50,RXF 631,61.4 µM (inactive)
same,GI50,KM-20L2,64.6 µM (inactive)
same,GI50,SW-620,> 100 µM (inactive)
same,GI50,COLO 205,> 100 µM (inactive)
same,GI50,KM12,> 100 µM (inactive)
same,GI50,SNB-78,> 100 µM (inactive)
same,GI50,UACC-257,> 100 µM (inactive)
same,GI50,Malme-3M,> 100 µM (inactive)
same,GI50,SN12C,69 µM (inactive)
same,GI50,EKVX,> 100 µM (inactive)
same,GI50,NCI-H460,> 100 µM (inactive)
same,GI50,UACC-62,37.6 µM (inactive)
same,GI50,MOLT-4,> 100 µM (inactive)
same,GI50,K562,43 µM (inactive)
same,GI50,SF-539,> 100 µM (inactive)
same,GI50,XF498,> 100 µM (inactive)
same,GI50,ACHN,> 100 µM (inactive)
same,GI50,OVCAR-4,> 100 µM (inactive)
same,GI50,NCI-H23,86.7 µM (inactive)
same,GI50,OVCAR-5,> 100 µM (inactive)
same,GI50,RPMI-8226,51.3 µM (inactive)
same,GI50,IGROV-1,> 100 µM (inactive)
same,GI50,LXFL 529,92.3 µM (inactive)
same,GI50,HOP-18,28.8 µM (inactive)
same,GI50,RXF 393,73.5 µM (inactive)
same,GI50,M19-MEL,> 100 µM (inactive)
same,GI50,CCRF-CEM,66.5 µM (inactive)
same,GI50,SK-MEL-5,76.7 µM (inactive)
same,GI50,SNB-19,> 100 µM (inactive)
same,GI50,OVCAR-8,> 100 µM (inactive)
same,GI50,A549,> 100 µM (inactive)
same,GI50,SNB-75,> 100 µM (inactive)
same,GI50,HL-60,> 100 µM (inactive)
same,GI50,LOX IMVI,> 100 µM (inactive)
same,GI50,DMS-273,> 100 µM (inactive)
same,GI50,HT-29,> 100 µM (inactive)
same,GI50,DLD-1,> 100 µM (inactive)
same,GI50,HCT-116,45.7 µM (inactive)
same,GI50,M14,> 100 µM (inactive)
same,GI50,SF-295,> 100 µM (inactive)
same,GI50,NCI-H226,51.9 µM (inactive)
same,GI50,CAKI-1,> 100 µM (inactive)
same,GI50,DMS-114,40.2 µM (inactive)
same,GI50,UO-31,> 100 µM (inactive)
same,GI50,HCT-15,> 100 µM
same,GI50,U-251,67.5 µM (inactive)
same,GI50,SK-MEL-28,> 100 µM (inactive)
same,GI50,SR,35.6 µM (inactive)
same,GI50,HOP-62,32 µM (inactive)
same,GI50,SK-OV-3,> 100 µM (inactive)
same,GI50,786-0,> 100 µM (inactive)
same,GI50,HCC 2998,49.9 µM (inactive)
same,GI50,OVCAR-3,60.4 µM (inactive)
same,GI50,TK-10,> 100 µM (inactive)
same,GI50,SK-MEL-2,38.4 µM (inactive)
same,GI50,SF-268,> 100 µM (inactive)
Cc1[nH]c2ccccc2c1C1=NO/C(=N\O)C(c2c(C)[nH]c3ccccc23)C1 (centres undefined),GI50,HOP-92,20.8 µM (inactive)
same,GI50,RXF 631,31 µM (inactive)
same,GI50,KM-20L2,23.8 µM (inactive)
same,GI50,SW-620,57.5 µM (inactive)
same,GI50,COLO 205,19.7 µM (inactive)
same,GI50,KM12,38 µM (inactive)
same,GI50,SNB-78,35.4 µM (inactive)
same,GI50,UACC-257,71.3 µM (inactive)
same,GI50,Malme-3M,53.2 µM (inactive)
same,GI50,SN12C,37 µM (inactive)
same,GI50,EKVX,27.3 µM (inactive)
same,GI50,NCI-H460,23.9 µM (inactive)
same,GI50,UACC-62,19.9 µM (inactive)
same,GI50,MOLT-4,21.4 µM (inactive)
same,GI50,K562,33.2 µM (inactive)
same,GI50,SF-539,23.6 µM (inactive)
same,GI50,XF498,53 µM (inactive)
same,GI50,ACHN,28.6 µM (inactive)
same,GI50,OVCAR-4,39.1 µM (inactive)
same,GI50,NCI-H23,62.1 µM (inactive)
same,GI50,OVCAR-5,50 µM (inactive)
same,GI50,RPMI-8226,34.5 µM (inactive)
same,GI50,IGROV-1,34.8 µM (inactive)
same,GI50,LXFL 529,35.6 µM (inactive)
same,GI50,HOP-18,32.4 µM (inactive)
same,GI50,RXF 393,23.3 µM (inactive)
same,GI50,M19-MEL,41.3 µM (inactive)
same,GI50,CCRF-CEM,31.4 µM (inactive)
same,GI50,SK-MEL-5,19.9 µM (inactive)
same,GI50,SNB-19,72.8 µM (inactive)
same,GI50,OVCAR-8,56.5 µM (inactive)
same,GI50,A549,38.6 µM (inactive)
same,GI50,SNB-75,43.2 µM (inactive)
same,GI50,HL-60,20.5 µM (inactive)
same,GI50,DMS-273,35.9 µM (inactive)
same,GI50,HT-29,22.7 µM (inactive)
same,GI50,DLD-1,42.3 µM (inactive)
same,GI50,HCT-116,28.3 µM (inactive)
same,GI50,M14,26.6 µM (inactive)
same,GI50,SF-295,36.7 µM (inactive)
same,GI50,NCI-H226,37.7 µM (inactive)
same,GI50,CAKI-1,36.1 µM (inactive)
same,GI50,DMS-114,36.8 µM (inactive)
same,GI50,UO-31,26.9 µM (inactive)
same,GI50,HCT-15,43 µM
same,GI50,U-251,42.9 µM (inactive)
same,GI50,SK-MEL-28,52.5 µM (inactive)
same,GI50,SR,23.8 µM (inactive)
same,GI50,HOP-62,21.7 µM (inactive)
same,GI50,SK-OV-3,49.9 µM (inactive)
same,GI50,786-0,40.7 µM (inactive)
same,GI50,HCC 2998,37.9 µM (inactive)
same,GI50,OVCAR-3,26.9 µM (inactive)
same,GI50,TK-10,54 µM (inactive)
same,GI50,A498,42.8 µM (inactive)
same,GI50,SK-MEL-2,40 µM (inactive)
same,GI50,SF-268,46 µM (inactive)
